In patent US20260070929A1, “METHODS AND COMPOSITIONS FOR MODULATING KRAS(G12D)” (Ranok Therapeutics (Hangzhou) Co. LTD., priority 2022, published 2026):
Where two headings read alike, the source gives them in different places.

What was measured:
[1] = tested on: AGS gastric carcinoma cells [heterozygous G12D]; assay: Cancer cell line proliferation (CellTiter-Glo), AGS; format: cell-based; conditions: 72 hr treatment, read-out: AGS CTG (EC50)
Outline: (§1)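 A 72 hr proliferation format is used: cells at 4,000/well, pre-grown 72 hr, then treated at 37° C./5% CO2 with 0.5% DMSO final. CellTiter-Glo measures viable cells, from which EC50 is calculated.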

[2] = tested on: ASPC1 pancreatic adenocarcinoma cells [homozygous G12D]; assay: Cancer cell line proliferation (CellTiter-Glo), ASPC1; format: cell-based; conditions: 72 hr treatment, read-out: ASPC-1 CTG (EC50)
Outline: as §1

[3] = molecular target: T1, KRAS(G12D)/SOS1 (Homo sapiens, UniProt P01116, G12D); assay: KRAS(G12D)/SOS1 homogeneous time-resolved fluorescence (HTRF) assay; format: binding; conditions: absence of GTP; 4° C., 3 hr
T1 construct: purchased Cisbio 63ADK000CB17PEH
Outline: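 HTRF kit assay of compound-blocked KRAS(G12D)–SOS1 interaction, run without GTP. Compounds were tested as 3-fold dilutions from 20 µM to 1.02 nM and incubated with the reaction components for 3 hr at 4 °C, sealed. IC50 was taken as the concentration giving 50% of maximal inhibition.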

[4] = tested on: A-427 lung carcinoma cells [heterozygous G12D]; assay: Cancer cell line proliferation (CellTiter-Glo), A-427; format: cell-based; conditions: A-427 cells, 72 hr treatment, read-out: A427 CTG (EC50)
Outline: as §1

[5] = tested on: SW1990 pancreatic adenocarcinoma cells [homozygous G12D]; assay: Cancer cell line proliferation (CellTiter-Glo), SW1990; format: cell-based; conditions: 72 hr treatment, read-out: SW1990 CTG (EC50)
Outline: as §1

T1 sequence (P01116 1-188 isoform P01116-2 G12D): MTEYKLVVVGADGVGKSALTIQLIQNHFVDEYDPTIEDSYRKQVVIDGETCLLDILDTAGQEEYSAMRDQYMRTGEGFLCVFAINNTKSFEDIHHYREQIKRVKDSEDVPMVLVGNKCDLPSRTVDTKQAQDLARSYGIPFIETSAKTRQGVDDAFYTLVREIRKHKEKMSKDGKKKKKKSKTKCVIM

Structure (SMILES) | EC50 ([1]; Homo sapiens) [nM] | EC50 ([2]; Homo sapiens, ASPC1, 72 h) [nM] | IC50 [3] [nM] | EC50 ([4]; Homo sapiens) [nM] | EC50 ([5]; Homo sapiens) [nM] | EC50 [1] [nM] | EC50 [2] [nM] | EC50 [4] [nM] | EC50 [5] [nM]
C#Cc1cccc2cc(O)cc(-c3ncc4c(N5CC6CCC(C5)N6)nc(OCC5(CN6CCN(CC7CCN(Cc8ccc(-n9c(C(=O)NC(C)C(F)(F)F)nnc9-c9cc(C(C)C)c(O)cc9O)cc8)CC7)CC6)CC5)nc4c3F)c12 (stereo not drawn) [Compound 126] | < 100 | < 100 | < 100 | < 100 | < 100 | – | – | – | –
CC(C)c1cc(C(=O)N2Cc3ccc(CN4CCN([C@H]5C[C@@H](COc6nc(N7CC8CCC(C7)N8)c7cnc(-c8ccccc8C(F)(F)F)c(F)c7n6)N(C)C5)CC4)cc3C2)c(O)cc1O [Compound 58] | < 100 | 100 to 1000 | > 1000 | < 100 | 100 to 1000 | – | – | – | –
CC(C)c1cc(C(=O)N2Cc3ccc(CN4CCN([C@H]5C[C@@H](COc6nc(N7CC8CCC(C7)N8)c7cnc(-c8cc(O)cc9ccccc89)c(F)c7n6)N(C)C5)CC4)cc3C2)c(O)cc1O [Compound 25] | < 100 | > 1000 | < 100 | 100 to 1000 | < 100 | – | – | – | –
CCNC(=O)c1nnc(-c2cc(C(C)C)c(O)cc2O)n1-c1ccc(CN2CCC(C(=O)N3CCN([C@H]4C[C@@H](COc5nc(N6CC7CCC(C6)N7)c6cnc(-c7cccc(C)c7C)c(F)c6n5)N(C)C4)CC3)CC2)cc1 [Compound 56] | < 100 | 100 to 1000 | > 1000 | 100 to 1000 | < 100 | – | – | – | –
C#Cc1cccc2cccc(-c3ncc4c(N5CC6CCC(C5)N6)nc(OC[C@@H]5C[C@H](CN6CCN(Cc7ccc8c(c7)CN(C(=O)c7cc(C(C)C)c(O)cc7O)C8)CC6)CN5C)nc4c3F)c12 [Compound 122] | 100 to 1000 | 100 to 1000 | < 100 | 100 to 1000 | 100 to 1000 | – | – | – | –
C#Cc1cccc2cc(O)cc(-c3ncc4c(N5CC6CCC(C5)N6)nc(OC[C@@H]5C[C@H](CN6CCN(Cc7ccc(-n8c(C(=O)NCC(F)(F)F)nnc8-c8cc(C(C)C)c(O)cc8O)cc7)CC6)CN5C)nc4c3F)c12 [Compound 123] | < 100 | 100 to 1000 | < 100 | 100 to 1000 | < 100 | – | – | – | –
C#Cc1cccc2cc(O)cc(-c3ncc4c(N5CC6CCC(C5)N6)nc(OCC5(CN6CCN(Cc7ccc(-n8c(C(=O)NCC(F)(F)F)nnc8-c8cc(C(C)C)c(O)cc8O)cc7)CC6)CC5)nc4c3F)c12 [Compound 130] | < 100 | 100 to 1000 | < 100 | < 100 | < 100 | – | – | – | –
C#Cc1cccc2cc(O)cc(-c3ncc4c(N5CC6CCC(C5)N6)nc(OCC5(CN6CCN(CC7CCN(Cc8ccc9c(c8)CN(C(=O)c8cc(C(C)C)c(OC)cc8O)C9)CC7)CC6)CC5)nc4c3F)c12 [Compound 144] | < 100 | 100 to 1000 | < 100 | 100 to 1000 | 100 to 1000 | – | – | – | –
C#Cc1c(F)ccc2cc(O)cc(-c3ncc4c(N5CC6CCC(C5)N6)nc(CCC5(CN6CCN(C7CCN(Cc8ccc9c(c8)CN(C(=O)c8cc(C(C)C)c(O)cc8O)C9)CC7)CC6)CC5)nc4c3F)c12 [Compound 161] | < 100 | 100 to 1000 | < 100 | 100 to 1000 | < 100 | – | – | – | –
C#Cc1c(F)ccc2cc(O)cc(-c3ncc4c(N5CC6CCC(C5)N6C(=O)C(F)(F)F)nc(OCC5(CN6CCN(CC7CCN(Cc8ccc(-n9c(C(=O)NC(C)C(F)(F)F)nnc9-c9cc(C(C)C)c(O)cc9O)cc8)CC7)CC6)CC5)nc4c3F)c12 (stereo not drawn) [Compound 146] | < 100 | 100 to 1000 | 100 to 1000 | < 100 | < 100 | – | – | – | –
C#Cc1cccc2cc(O)cc(-c3ncc4c(N5CC6CCC(C5)N6)nc(OCC5(CN6CCN(CC7CCN(Cc8ccc9c(c8)CN(C(=O)c8cc(C(C)C)c(O)cc8O)C9)CC7)CC6)CC5)nc4c3F)c12 [Compound 125] | – | – | < 100 | – | – | < 100 | 100 to 1000 | 100 to 1000 | < 100
C#Cc1cccc2cc(O)cc(-c3ncc4c(N5CC6CCC(C5)N6)nc(OCC5(CN6CCC(C(=O)N7CCN(Cc8ccc(-n9c(C(=O)NC(C)C(F)(F)F)nnc9-c9cc(C(C)C)c(O)cc9O)cc8)CC7)CC6)CC5)nc4c3F)c12 (stereo not drawn) [Compound 120] | < 100 | 100 to 1000 | < 100 | 100 to 1000 | < 100 | – | – | – | –
C#Cc1c(F)ccc2cc(O)cc(-c3ncc4c(N5CC6CCC(C5)N6)nc(OCC5(CN6CCN(CC7CCN(Cc8ccc(-n9c(C(=O)NCC(F)(F)F)nnc9-c9cc(C(C)C)c(O)cc9O)cc8)CC7)CC6)CC5)nc4c3F)c12 [Compound 154] | < 100 | < 100 | < 100 | < 100 | < 100 | – | – | – | –
C#Cc1cccc2cc(O)cc(-c3ncc4c(N5CC6CCC(C5)N6C(C)=O)nc(OCC5(CN6CCN(CC7CCN(Cc8ccc(-n9c(C(=O)NC(C)C(F)(F)F)nnc9-c9cc(C(C)C)c(O)cc9O)cc8)CC7)CC6)CC5)nc4c3F)c12 (stereo not drawn) [Compound 150] | < 100 | 100 to 1000 | 100 to 1000 | < 100 | < 100 | – | – | – | –
C#Cc1c(F)ccc2cc(O)cc(-c3ncc4c(N5CC6CCC(C5)N6)nc(OCC5(CN6CCN(CC7CCN(Cc8ccc(-n9c(C(=O)NCC)nnc9-c9cc(CC)c(O)cc9O)cc8)CC7)CC6)CC5)nc4c3F)c12 [Compound 149] | < 100 | < 100 | < 100 | < 100 | < 100 | – | – | – | –
